Target: T1, wild-type mouse TMEM16A (Mus musculus, UniProt Q8BHY3)
T1 construct: expressed in transfected cells; host or cells: HEK293T
T1 sequence (Q8BHY3 1-960): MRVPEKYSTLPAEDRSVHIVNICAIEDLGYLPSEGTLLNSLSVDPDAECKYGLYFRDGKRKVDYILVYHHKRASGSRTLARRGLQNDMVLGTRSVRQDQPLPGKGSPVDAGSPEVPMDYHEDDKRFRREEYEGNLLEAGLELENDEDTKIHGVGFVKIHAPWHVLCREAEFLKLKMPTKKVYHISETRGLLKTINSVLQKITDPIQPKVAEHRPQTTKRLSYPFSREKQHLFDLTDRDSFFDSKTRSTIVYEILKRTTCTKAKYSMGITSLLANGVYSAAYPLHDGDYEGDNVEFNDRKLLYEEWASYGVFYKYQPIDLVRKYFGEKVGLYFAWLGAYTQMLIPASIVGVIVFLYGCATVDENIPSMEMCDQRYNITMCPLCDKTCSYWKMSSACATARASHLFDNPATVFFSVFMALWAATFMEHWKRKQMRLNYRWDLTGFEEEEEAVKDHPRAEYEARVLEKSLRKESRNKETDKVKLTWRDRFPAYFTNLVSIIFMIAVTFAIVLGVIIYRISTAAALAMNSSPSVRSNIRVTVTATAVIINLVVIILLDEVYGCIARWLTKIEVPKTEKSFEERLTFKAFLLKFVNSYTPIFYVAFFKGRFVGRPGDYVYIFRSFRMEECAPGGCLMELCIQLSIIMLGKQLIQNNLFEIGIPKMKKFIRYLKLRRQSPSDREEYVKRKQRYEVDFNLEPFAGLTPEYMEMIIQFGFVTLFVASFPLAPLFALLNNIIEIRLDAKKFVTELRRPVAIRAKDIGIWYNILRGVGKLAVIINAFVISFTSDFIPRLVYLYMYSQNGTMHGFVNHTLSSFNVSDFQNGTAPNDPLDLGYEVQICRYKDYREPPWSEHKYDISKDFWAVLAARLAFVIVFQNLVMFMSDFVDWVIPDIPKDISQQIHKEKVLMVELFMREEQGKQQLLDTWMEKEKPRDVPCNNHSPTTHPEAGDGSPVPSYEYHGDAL
Test: Ultra-fast concentration-jump experiments, kinetics of 1PBC block in inside-out patches
Type: cell-based
Settings: 3 µM 1PBC; excised patches, ultra-fast perfusion
Protocol: HEK293T cells were transfected with 3–4 μg DNA per 6 cm Petri dish using the calcium phosphate co-precipitation method and were used within 24–96 h after transfection. Recordings were performed on inside-out patches excised from HEK293T cells expressing the construct of interest. Patch pipettes were pulled from borosilicate glass capillaries (O.D. 1.5 mm, I.D. 0.86 mm, Sutter Instrument) and were fire-polished with a microforge (Narishige) before use. Pipette resistance was typically 3–8 MΩ when filled with the recording solutions detailed below. Seal resistance was typically 4 GΩ or higher. Voltage-clamp recordings were made using Axopatch 200B, Digidata 1550, and Clampex 10.7 (Molecular Devices). Analog signals were filtered with the in-built 4-pole Bessel filter at 10 kHz and were digitized at 20 kHz. Solution exchange was achieved using a gravity-fed system through a theta glass pipette mounted on an ultra-fast piezo-driven stepper (Siskiyou). […] All recordings were performed at 20 °C.
Supplementary Fig. 2: State dependence of 1PBC block. a, Kinetics of 1PBC block at an intermediate 1PBC concentration and the indicated sub- saturating Ca2+ concentrations in ultra-fast concentration- jump experiments at + 8 0 m V in the inside- out configuration. 1PBC was applied from the intracellular side. […] 6 µM (as determined in Fig. 2a, b) and kon = 1 x 106 M-1s-1. […]

- Kinetics of block (time constant): ~ 50 ms
Compound: N#Cc1c(C(F)(F)F)cc(O)n2c1nc1ccccc12 [1PBC]
